Consider 13 molecules from PubChem BioAssay (NCI).

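1) Cells in 96-well plates. 2) Compound, 48 h, 5 concentrations. 3) Linear interpolation between surrounding doses. 4) Unreached endpoint = highest concentration. Here, GI50 denotes the concentration required for 50% inhibition of growth. At the TGI there is no net growth.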 Some results are limits rather than exact numbers.

Some test systems named below: CAKI-1 renal; HCC-2998 colon; HS 578T breast; HT29 colon; MOLT-4 leukemia; NCI-H522 lung; NCI/ADR-RES ovarian; SK-MEL-2 melanoma; SN12C renal; A498 renal.
Test in all cases: DTP human tumour cell line panel, 48 h

The term TGI denotes the concentration giving total growth inhibition. Read a low TGI as more potent growth arrest. With `COc1ccc(NC(=O)/C(CC2=Nc3ccc([N+](=O)[O-])cc3NC2O)=N\NC(=O)C[N+](C)(C)C)c(OC)c1` (stereo not given), the total growth inhibition concentration (TGI) with CAKI-1 renal, with HCC-2998 colon, in the experiment on HS 578T breast, in the experiment with HT29 colon, with MOLT-4 leukemia and in the experiment on NCI-H522 lung was > 100 µM throughout. Besides, the concentration for total growth inhibition (TGI) in the experiment with NCI/ADR-RES ovarian, in the experiment with SK-MEL-2 melanoma and with SN12C renal was > 100 µM throughout.

Take `Brc1ccccc1-c1ncc(-c2ccccc2)o1`: the TGI was 60.5 µM with A498 renal; > 100 µM in the experiment with CAKI-1 renal; 80.4 µM in the experiment on HCC-2998 colon; 41 µM in the experiment with HS 578T breast; > 100 µM with HT29 colon; 49.6 µM in the experiment on MOLT-4 leukemia. For the same molecule, the total growth inhibition concentration (TGI) with NCI-H522 lung is 49.9 µM; in the experiment with NCI/ADR-RES ovarian it was > 100 µM; in the experiment with SK-MEL-2 melanoma, 89.9 µM; in the experiment on SN12C renal, > 100 µM.

As to `N#Cc1c(NC(=S)NC(=O)c2ccccc2)nc2c(c1-c1ccccc1)CCCC2`, the TGI was > 100 µM with CAKI-1 renal; 35 µM in the experiment on HS 578T breast; > 100 µM in the experiment with HT29 colon; > 100 µM with MOLT-4 leukemia; > 100 µM with NCI/ADR-RES ovarian.

Consider `COc1cc(C2c3cc4c(cc3[C@@H](Nc3cccc(C(C)=O)c3)C3COC(=O)[C@H]23)OCO4)cc(OC)c1O` (stereo not given in full), for which the total growth inhibition concentration (TGI) in the experiment with A498 renal is 1.6 µM; in the experiment on CAKI-1 renal, 2.13 µM; in the experiment with HCC-2998 colon it was 3.23 µM; in the experiment on HT29 colon, 6.53 µM; in the experiment on MOLT-4 leukemia, 0.129 µM; with NCI-H522 lung, 5.77 µM. For the same molecule, the concentration for total growth inhibition (TGI) was > 100 µM with NCI/ADR-RES ovarian and 7.43 µM with SK-MEL-2 melanoma.

Regarding `CCOC(=O)/C=C(\C)c1ccc(OC)cc1`, the TGI in the experiment with A498 renal, with CAKI-1 renal, in the experiment on HCC-2998 colon, in the experiment with HT29 colon, with SK-MEL-2 melanoma and in the experiment on SN12C renal was > 100 µM in each case.

On to `CN(C)c1ccc(N=Nc2ccccn2)cc1`, for which the TGI in the experiment on A498 renal is 94.7 µM; in the experiment on CAKI-1 renal, > 100 µM; with HCC-2998 colon it was 59.7 µM; in the experiment on HS 578T breast it was > 100 µM; in the experiment on HT29 colon it was > 100 µM; in the experiment with MOLT-4 leukemia, 40.9 µM. For the same molecule, the TGI in the experiment with NCI-H522 lung was > 100 µM; with NCI/ADR-RES ovarian it was 66.1 µM; in the experiment with SK-MEL-2 melanoma, > 100 µM; in the experiment on SN12C renal it was > 100 µM.

What is called GI50 is the concentration giving 50% growth inhibition. In the case of `ClCc1c(Cl)c(Cl)c(Cl)c(CCl)c1Cl`, the GI50 is 2.45 µM in the experiment with A498 renal; 1.68 µM in the experiment with CAKI-1 renal; 1.78 µM with HCC-2998 colon; 2.15 µM in the experiment with HS 578T breast; 1.79 µM with HT29 colon; 2.41 µM in the experiment on MOLT-4 leukemia. Also, the GI50 in the experiment on NCI-H522 lung was 1.51 µM; in the experiment with NCI/ADR-RES ovarian, 3.5 µM; in the experiment on SK-MEL-2 melanoma it was 2.2 µM; in the experiment with SN12C renal it was 1.91 µM. For the same molecule, the TGI came out at 12.5 µM with A498 renal; 3.1 µM in the experiment with CAKI-1 renal; 3.45 µM in the experiment on HCC-2998 colon; 5.61 µM in the experiment on HS 578T breast; 3.3 µM in the experiment on HT29 colon; 5.86 µM with MOLT-4 leukemia. Besides, the TGI is 3.12 µM in the experiment on NCI-H522 lung, 17.3 µM in the experiment on NCI/ADR-RES ovarian, 5.07 µM in the experiment with SK-MEL-2 melanoma and 4.03 µM with SN12C renal.

As for `C#CC[C@@H]1C[C@]2(C)[C@H]3CC=C4[C@H]5CC(C)(C)CC[C@]5(C(=O)NCCCCN)CC[C@@]4(C)[C@]3(C)CC[C@H]2C(C)(C)[C@H]1OC(C)=O`, the GI50 is 1.8 µM with A498 renal; 1.54 µM in the experiment on CAKI-1 renal; 1.73 µM in the experiment with HS 578T breast; 1.78 µM with SK-MEL-2 melanoma; 1.76 µM in the experiment on SN12C renal. Further, the TGI stood at 3.21 µM in the experiment on A498 renal; 2.9 µM in the experiment on CAKI-1 renal; 3.71 µM with HS 578T breast; 3.45 µM in the experiment on SK-MEL-2 melanoma; 3.28 µM in the experiment with SN12C renal.

As to `CC(C)(Br)C1(O)CCCN1C(=O)c1ccccc1` (stereo not given), the TGI in the experiment on A498 renal, in the experiment on HCC-2998 colon, in the experiment with HT29 colon, in the experiment with MOLT-4 leukemia, in the experiment with NCI-H522 lung and with SK-MEL-2 melanoma was > 100 µM in each case. Besides, in the experiment on SN12C renal, the TGI was > 100 µM.

Turning to `Cc1ccc(S(N)(=O)=O)cc1`, the TGI in the experiment with A498 renal, in the experiment on HCC-2998 colon, in the experiment on HS 578T breast, in the experiment with HT29 colon, in the experiment on MOLT-4 leukemia and in the experiment with NCI-H522 lung was > 1000 µM throughout. Further, the total growth inhibition concentration (TGI) with NCI/ADR-RES ovarian, with SK-MEL-2 melanoma and in the experiment on SN12C renal was > 1000 µM each time.

Regarding `COc1ccc(-c2cc(N3CCN(c4ccccc4)CC3)c(C#N)c(=O)o2)cc1`, the TGI was 64.9 µM in the experiment with A498 renal; 53.9 µM with CAKI-1 renal; > 100 µM with HCC-2998 colon; > 100 µM with HT29 colon; > 100 µM in the experiment on MOLT-4 leukemia; 53.6 µM with SK-MEL-2 melanoma. Besides, the TGI in the experiment on SN12C renal was > 100 µM.

As to `NCc1ccc(C(=O)O)cc1`, the TGI in the experiment with A498 renal, in the experiment on CAKI-1 renal, in the experiment with HCC-2998 colon, in the experiment with HT29 colon, with MOLT-4 leukemia and with NCI-H522 lung was > 100 µM each time. Also, the total growth inhibition concentration (TGI) in the experiment with NCI/ADR-RES ovarian and with SN12C renal was > 100 µM throughout.

Consider `COc1ccc(NC(=O)/C(=C/c2ccc(N(CCC#N)CCC#N)cc2)NC(=O)c2cc([N+](=O)[O-])ccc2Cl)cc1`, for which the concentration for total growth inhibition (TGI) in the experiment with CAKI-1 renal, in the experiment on HCC-2998 colon, in the experiment on MOLT-4 leukemia, in the experiment on NCI-H522 lung, with SK-MEL-2 melanoma and with SN12C renal was > 100 µM each time.
